Laboratory results from US6593342B1, “Pharmaceutical compositions comprising 2-quinolones” (Laboratoire L. Lafon, priority 1998, dated 2003).

Experiments:
Type in all cases: cell-based
MCF7 = experiment: MTT test, MCF7; settings: Homo sapiens, 10^−5 M, 72 hours, control = 100%, mean ± SEM, read-out: average optical density (MTT), percentage relative to control
Method: (§1) The influence of the compounds of formulae (I) and (Ia) on non-clonogenic cells was evaluated with the aid of the MTT calorimetric test.
(§2) The principle of the MTT test is based on the mitochondrial reduction, by the metabolically active live cells, of the yellow-colored product MTT (3-(4,5-dimethylthiazol-2-yl)-2,5-diphenyltetrazolium bromide) to a blue-colored product, formazan. The amount of formazan thus obtained is directly proportional to the amount of live cells present in the culture well(s). This amount of formazan is measured by spectrophotometry.
(§3) The cell lines are maintained as a monolayer culture at 37° C. in stoppered culture dishes containing MEM 25 MM HEPES (Minimum Essential Medium) base medium. This medium is suited to the growth of a range of various mammalian diploid or primary cells. This medium is then supplemented with:
(§4) an amount of 5% of FCS (Foetal Calf Serum) decomplemented at 56° C. for 1 hour,
(§5) 0.6 mg/ml of L-glutamine,
(§6) 200 μg/ml of streptomycin,
(§7) The 12 human cancer cell lines which were used were obtained from the American Type Culture Collection (ATCC, Rockville, Md., USA). These 12 cell lines are:
T-47D (code ATCC: HTB-133) and MCF7 (code ATCC: HTB-22) which are two breast cancers,
(§8) Experimentally: 100 μl of a cell suspension containing 20 000 to 50 000 (depending on the cell type used) cells/ml of culture medium are inoculated in 96-well flat-bottomed multi-well plates and are incubated at 37° C., under an atmosphere comprising 5% CO2 and 70% humidity. After incubation for 24 hours, the culture medium is replaced with 100 μl of fresh medium containing either the various test compounds at concentrations ranging from 10^−5 to 10^−10 M or the solvent used to dissolve the test products (control condition). After incubation for 72 hours under the above conditions, the culture medium is replaced with 100 μl of a yellowish solution of MTT dissolved at a rate of 1 mg/ml in RPMI 1640. The microplates are reincubated for 3 hours at 37° C. and are then centrifuged for 10 minutes at 400×g. The yellowish solution of MTT is removed and the blue formazan crystals formed in the cell are dissolved in 100 μl of DMSO. The microplates are then shaken for 5 minutes. The intensity of the resulting blue coloration, and thus of the conversion of the yellow product MTT into blue formazan by the cells that are still alive at the end of the experiment, is quantified by spectrophotometry using a Dynatech Immunoassay System machine at wavelengths of 570 nm and 630 nm corresponding, respectively, to the maximum absorption wavelengths of formazan and to the background noise. Software incorporated in the spectrophotometer calculates the average optical density values and the standard deviation (SD) and standard error of mean (SEM) values.
(§9) By way of example, the results of the average optical density, expressed as a percentage relative to the average optical density measured under the control condition (set equal to 100%), obtained at a concentration of 10^−5 M on the 12 abovementioned tumor cell lines are given in Table II.

A549 = experiment: MTT test, A549; settings: Homo sapiens, 10^−5 M, 72 hours, control = 100%, mean ± SEM, read-out: average optical density (MTT), percentage relative to control
Method: as §1, §2, §3, §4, §5, §6, §7
(§10) A549 (code ATCC: CCL-185) and A-427 (code ATCC: HTB-53) which are two non-small-cell lung cancers,
as §8, §9

A-427 = experiment: MTT test, A-427; settings: Homo sapiens, 10^−5 M, 72 hours, control = 100%, mean ± SEM, read-out: average optical density (MTT), percentage relative to control
Method: as §1, §2, §3, §4, §5, §6, §7, §10, §8, §9

U-87MG = experiment: MTT test, U-87MG; settings: Homo sapiens, 10^−5 M, 72 hours, control = 100%, mean ± SEM, read-out: average optical density (MTT), percentage relative to control
Method: as §1, §2, §3, §4, §5, §6, §7
(§11) U-373MG (code ATCC: HTB-17) and U-87MG (code ATCC: HTB-14) which are two glioblastomas,
as §8, §9

U-373MG = experiment: MTT test, U-373MG; settings: Homo sapiens, U373 MG, 10^−5 M, 72 hours, control = 100%, mean ± SEM, read-out: average optical density (MTT), percentage relative to control
Method: as §1, §2, §3, §4, §5, §6, §7, §11, §8, §9

Compound | viability at 10 µM (MCF7) | viability at 10 µM (A549) | viability at 10 µM (A-427) | viability at 10 µM (U-87MG) | viability at 10 µM (U-373MG)
COc1ccc(-c2cc3c(OC)cc(OC)cc3n(CCN(C)C)c2=O)cc1 [CRL8316, 1-[2-(Dimethylamino)ethyl]-5,7-dimethoxy-3-(4-methoxyphenyl)-1,2-dihydro-2-quinolinone] | 78.9 ± 4% | 84.2 ± 1.9% | 79.1 ± 4.8% | 74.3 ± 1.4% | 89.8 ± 2.9%
CCN(CC)C(=O)Cn1c(=O)c(-c2ccc(OC)cc2)cc2c(OC)cc(OC)cc21 [CRL8315, N,N-Diethyl-2-[5,7-dimethoxy-3-(4-methoxy-phenyl)-2-oxo-1,2-dihydro-1-quinolinyl]acetamide] | 96.2 ± 1.7% | 76.1 ± 2.4% | 92.6 ± 2.1% | 87.6 ± 4.5% | 68.9 ± 2.2%
CCN(CC)C(=O)CCn1c(=O)c(-c2ccc(OC)cc2)cc2c(OC)cc(OC)cc21 [CRL8283, N,N-Diethyl-3-[5,7-dimethoxy-3-(4-methoxy-phenyl)-2-oxo-1,2-dihydro-1-quinolinyl]propanamide] | 76.2 ± 0.9% | 63.6 ± 4.2% | 73.1 ± 1.7% | 69.9 ± 3.4% | 93.4 ± 1.5%
COc1ccc(-c2cc3c(OC)cc(OC)cc3[nH]c2=O)cc1 [CRL8246, 5,7-Dimethoxy-3-(4-methoxyphenyl)-1,2-dihydro-2-quinolinone] | 98.1 ± 1.4% | 113 ± 2.1% | 101 ± 0.9% | 92.1 ± 1.5% | 96.6 ± 1.2%
COc1ccc(-c2cc3c(OC)cc(OC)cc3n(CCC#N)c2=O)cc1 [CRL8247, 3-[5,7-Dimethoxy-3-(4-methoxyphenyl)-2-oxo-1,2-dihydro-1-quinolinyl]propanenitrile] | 78.9 ± 1.1% | 81.3 ± 1.9% | 57 ± 1.5% | 59 ± 2.3% | 68.7 ± 2.8%
COc1ccc(-c2cc3c(OC)cc(OC)cc3n(CCc3nnn[nH]3)c2=O)cc1 [CRL8256, 1-[2-(1H-1,2,3,4-Tetrazol-5-yl)ethyl]-5,7-dimethoxy-3-(4-methoxyphenyl)-1,2-dihydro-2-quinolinone] | 81.8 ± 1.6% | 56.5 ± 3.7% | 81.1 ± 2.9% | 84.7 ± 1.7% | 76.1 ± 2.6%
